Laboratory results from ChEMBL document CHEMBL1201862, “PubChem BioAssay data set” (2004).
Calls of active or inactive are those of the source. Cut-off read from the data, not from the text of the source, for most assays here: actives have a measured EC50 and inactives only a lower limit.

What was measured:
[1] = Luminescence Cell-Based Dose Response HTS to Identify Inhibitors of 5'UTR Stem-Loop Driven Prion Protein mRNA Translation in H4 Neuroglioblastoma Cells. [Related pubchem assays: 1827 (Project Summary), 1813 (Primary HTS)]; assay type: functional
[2] = inhibitors of firefly luciferase expression or activity, dose response, H4 neuroglioma cells, luminescence (AID 1990); assay type: functional, cell-based
[3] = inhibitors of SNCA 5'UTR-driven reporter translation, confirmation, H4 neuroglioma cells, luminescence (AID 1988); assay type: functional, cell-based
[4] = system: Streptococcus sp. 'group A'; assay: growth inhibition of control SK(-) GAS strain, dose response, counter-screen for streptokinase expression inhibitor project, luminescence, kanamycin, BacTiterGlo, confirmation (AID 1900); assay type: functional, organism-based
Streptococcus = assay: Group A Streptococcus viability loss, dose response, counter-screen for streptokinase expression inhibitor project, luminescence, BacTiterGlo (AID 1915); assay type: functional, organism-based;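 note: potency for reduction of bacterial viability or growth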
Streptokinase A = biological target: T1, Streptokinase A (Streptococcus pyogenes serotype M1, UniProt P10520); assay: S. pyogenes streptokinase expression inhibitors, potency, dose response, plasminogen activation absorbance, OD405 (AID 1914); assay type: functional, Streptococcus pyogenes M1 GAS;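 note: secreted streptokinase activity via plasminogen activation per viability signal from cell pellet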
T1 sequence (P10520 whole entry): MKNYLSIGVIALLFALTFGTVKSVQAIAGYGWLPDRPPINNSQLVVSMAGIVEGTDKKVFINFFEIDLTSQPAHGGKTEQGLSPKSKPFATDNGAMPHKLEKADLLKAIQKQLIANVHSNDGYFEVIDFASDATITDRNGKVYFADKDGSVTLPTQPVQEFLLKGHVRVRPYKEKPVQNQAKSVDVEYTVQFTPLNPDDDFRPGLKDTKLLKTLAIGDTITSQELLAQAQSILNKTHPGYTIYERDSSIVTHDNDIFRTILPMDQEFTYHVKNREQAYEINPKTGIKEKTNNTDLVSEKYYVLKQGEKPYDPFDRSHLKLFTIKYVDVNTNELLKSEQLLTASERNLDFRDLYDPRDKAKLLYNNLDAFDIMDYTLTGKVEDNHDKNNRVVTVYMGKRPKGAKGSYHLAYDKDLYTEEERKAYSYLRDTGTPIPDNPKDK

Paired box protein Pax-8 = Paired box protein Pax-8 (Homo sapiens, UniProt Q06710); assay: inhibitors of PAX8-driven TPO luciferase reporter, dose response, RMG-I cells, cherry-pick (AID 687027); assay type: functional, cell-based;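 note: luciferase reporter driven by Pax8 target thyroperoxidase promoter measured by SteadyGlo luminescence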
cells = assay type: functional
Protein RecA = biological target: T2, Protein RecA (Mycobacterium tuberculosis, UniProt P9WHJ3); assay: Fluorescence Cell-Free Homogeneous Dose Retest to Identify Inhibitors of RecA-Intein Splicing Activity. [Related pubchem assays (depositor defined):AID2097, AID2223, AID489010, AID492950]; assay type: functional
T2 sequence (P9WHJ3 whole entry): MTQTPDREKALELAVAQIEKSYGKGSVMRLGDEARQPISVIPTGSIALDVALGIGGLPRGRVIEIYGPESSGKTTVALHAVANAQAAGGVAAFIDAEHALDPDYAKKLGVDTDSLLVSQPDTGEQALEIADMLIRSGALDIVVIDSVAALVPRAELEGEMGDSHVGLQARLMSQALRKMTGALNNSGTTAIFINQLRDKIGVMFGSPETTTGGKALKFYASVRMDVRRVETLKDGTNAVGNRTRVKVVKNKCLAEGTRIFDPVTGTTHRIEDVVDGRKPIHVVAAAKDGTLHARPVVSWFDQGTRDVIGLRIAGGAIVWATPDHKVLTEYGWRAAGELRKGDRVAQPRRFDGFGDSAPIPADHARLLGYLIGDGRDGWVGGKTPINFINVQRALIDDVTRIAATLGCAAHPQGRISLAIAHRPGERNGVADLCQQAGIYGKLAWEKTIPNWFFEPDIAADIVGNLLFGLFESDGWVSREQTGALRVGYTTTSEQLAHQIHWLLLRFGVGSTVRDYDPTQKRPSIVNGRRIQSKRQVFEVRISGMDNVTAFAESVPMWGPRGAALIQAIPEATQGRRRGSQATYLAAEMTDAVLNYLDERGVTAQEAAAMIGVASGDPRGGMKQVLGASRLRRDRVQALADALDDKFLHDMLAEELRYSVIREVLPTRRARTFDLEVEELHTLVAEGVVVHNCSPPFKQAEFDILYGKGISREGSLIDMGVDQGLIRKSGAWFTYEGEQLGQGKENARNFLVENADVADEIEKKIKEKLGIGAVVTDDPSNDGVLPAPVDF

[5] = biological target: T3, Replicative DNA helicase DnaB (Mycobacterium tuberculosis, UniProt P9WMR3); assay: DnaB intein splicing inhibitors, dose response, biochemical, cell-free fluorescence (AID 449749); assay type: functional
T3 sequence (P9WMR3 whole entry): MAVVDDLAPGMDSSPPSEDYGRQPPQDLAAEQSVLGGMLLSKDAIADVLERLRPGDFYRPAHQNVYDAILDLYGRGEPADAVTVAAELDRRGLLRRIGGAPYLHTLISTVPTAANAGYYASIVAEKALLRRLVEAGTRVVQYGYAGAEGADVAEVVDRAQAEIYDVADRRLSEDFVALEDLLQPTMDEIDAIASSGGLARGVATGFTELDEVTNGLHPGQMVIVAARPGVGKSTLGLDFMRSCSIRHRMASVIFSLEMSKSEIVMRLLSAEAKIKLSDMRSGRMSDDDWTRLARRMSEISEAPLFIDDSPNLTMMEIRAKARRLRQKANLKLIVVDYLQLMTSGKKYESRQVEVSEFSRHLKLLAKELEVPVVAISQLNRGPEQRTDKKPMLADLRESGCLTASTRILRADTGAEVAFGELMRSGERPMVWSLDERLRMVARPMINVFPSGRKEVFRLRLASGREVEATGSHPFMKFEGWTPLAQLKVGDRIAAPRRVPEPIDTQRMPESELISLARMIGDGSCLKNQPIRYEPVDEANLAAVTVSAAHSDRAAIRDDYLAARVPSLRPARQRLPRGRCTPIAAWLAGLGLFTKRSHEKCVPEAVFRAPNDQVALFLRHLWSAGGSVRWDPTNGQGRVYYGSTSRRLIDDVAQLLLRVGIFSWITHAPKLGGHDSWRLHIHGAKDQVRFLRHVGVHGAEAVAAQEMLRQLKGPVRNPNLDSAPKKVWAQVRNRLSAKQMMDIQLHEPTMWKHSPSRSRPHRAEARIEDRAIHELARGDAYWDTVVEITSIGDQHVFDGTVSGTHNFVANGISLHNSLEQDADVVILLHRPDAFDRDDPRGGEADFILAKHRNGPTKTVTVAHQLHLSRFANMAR

[6] = biological target: T4, Heat shock factor protein 1 (Mus musculus, UniProt P38532); assay: inhibition of MG132-induced HSE-luciferase signal, confirmation, cell-based, NIH3T3, luminescence, dose retest (AID 2382); assay type: functional;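 note: NIH3T3 fibroblasts with HSF1-driven luciferase reporter stressed by proteasome inhibitor MG132; luminescence from HSF1-driven luciferase expression after 8 hours of MG132 stress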
T4 sequence (P38532 whole entry): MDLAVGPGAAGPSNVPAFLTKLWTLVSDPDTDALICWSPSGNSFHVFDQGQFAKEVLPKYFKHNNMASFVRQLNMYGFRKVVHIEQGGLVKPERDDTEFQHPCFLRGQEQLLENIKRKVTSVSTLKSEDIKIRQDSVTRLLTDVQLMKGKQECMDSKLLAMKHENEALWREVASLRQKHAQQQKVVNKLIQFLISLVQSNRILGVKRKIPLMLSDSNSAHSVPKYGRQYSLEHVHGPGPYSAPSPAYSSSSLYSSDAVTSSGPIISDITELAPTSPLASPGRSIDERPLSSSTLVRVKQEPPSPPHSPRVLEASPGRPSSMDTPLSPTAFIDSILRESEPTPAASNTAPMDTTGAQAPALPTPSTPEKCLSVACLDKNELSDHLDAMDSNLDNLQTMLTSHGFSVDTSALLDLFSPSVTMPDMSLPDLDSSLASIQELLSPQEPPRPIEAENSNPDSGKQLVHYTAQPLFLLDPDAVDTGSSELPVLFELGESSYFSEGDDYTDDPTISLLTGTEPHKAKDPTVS

Cytochrome P450 2C9 = Cytochrome P450 2C9 (Homo sapiens, UniProt P11712)
[7] = Luminescence Cell-Based Dose Retest to Confirm Inhibitors of Cancer Stem Cells. [Related pubchem assays (depositor defined):AID2717, AID2721]; assay type: functional; details: Homo sapiens

Paired box protein Pax-8, sequence (Q06710 whole entry): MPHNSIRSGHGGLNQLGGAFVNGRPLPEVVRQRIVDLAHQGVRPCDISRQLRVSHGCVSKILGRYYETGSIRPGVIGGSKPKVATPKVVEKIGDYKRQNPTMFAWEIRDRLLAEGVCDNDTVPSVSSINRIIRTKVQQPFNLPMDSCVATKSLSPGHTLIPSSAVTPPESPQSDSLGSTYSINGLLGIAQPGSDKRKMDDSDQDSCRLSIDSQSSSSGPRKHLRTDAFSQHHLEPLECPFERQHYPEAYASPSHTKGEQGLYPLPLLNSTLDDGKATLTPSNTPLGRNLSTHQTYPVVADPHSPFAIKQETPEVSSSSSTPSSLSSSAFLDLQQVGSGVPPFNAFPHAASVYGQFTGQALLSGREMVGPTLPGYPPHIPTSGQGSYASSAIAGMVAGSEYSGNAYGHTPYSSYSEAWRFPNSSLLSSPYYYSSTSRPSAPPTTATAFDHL
Cytochrome P450 2C9, sequence (P11712 whole entry): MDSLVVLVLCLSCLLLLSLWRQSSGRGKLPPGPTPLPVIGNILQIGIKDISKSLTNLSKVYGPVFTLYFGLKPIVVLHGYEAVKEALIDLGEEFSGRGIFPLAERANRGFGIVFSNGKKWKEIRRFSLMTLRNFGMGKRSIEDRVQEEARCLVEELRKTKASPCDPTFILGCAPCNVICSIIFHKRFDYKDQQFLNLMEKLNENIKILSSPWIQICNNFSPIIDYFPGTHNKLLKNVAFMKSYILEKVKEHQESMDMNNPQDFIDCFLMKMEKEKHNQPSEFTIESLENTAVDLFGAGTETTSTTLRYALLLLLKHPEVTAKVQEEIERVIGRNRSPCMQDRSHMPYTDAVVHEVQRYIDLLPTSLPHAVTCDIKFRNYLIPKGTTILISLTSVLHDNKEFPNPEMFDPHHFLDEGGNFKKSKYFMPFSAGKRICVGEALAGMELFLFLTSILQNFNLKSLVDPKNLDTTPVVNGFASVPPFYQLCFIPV

Structure (SMILES): O=C(Cn1cnc2c(oc3nc4c(cc32)CCCC4)c1=O)Nc1cccc(Cl)c1
- EC50 [1]: > 120 µM (not active)
- EC50 [2]: 13 µM (active)
- EC50 [3]: 10.2 µM (active)

Structure (SMILES): CCc1cc(C(=O)N2CCCC(CCC(=O)NCc3cccc(OC)c3)C2)no1 (configuration not stated)
- EC50 [4]: > 150 µM (not active)
- EC50 (Streptococcus): > 150 µM (not active)
- EC50 (Streptokinase A): > 150 µM (not active)

Structure (SMILES): O=C(CCc1ccc(S(=O)(=O)NCc2ccccc2)cc1)NCc1ccco1
- AC50 (Paired box protein Pax-8): 47.9 µM (active)

Structure (SMILES): CC(C)(C)c1ccc(OCCCC(=O)NC2=NCCS2)cc1
- EC50 [4]: 19.8 µM (active)
- EC50 (Streptococcus): > 150 µM (not active)
- EC50 (Streptokinase A): > 150 µM (not active)
- IC50 (cells): 20.1 µM (active)

Structure (SMILES): CCOc1ccc(NC(=O)C(c2ccccn2)N(C(=O)CCl)c2ccc(F)cc2)cc1 (configuration not stated)
- EC50 (Protein RecA): 2.67 µM (active)
- AC50 [5]: 7.1 µM (active)

Structure (SMILES): CCCCc1ccc(NC(S)=NCCc2ccc(F)cc2)cc1
- EC50 (Streptococcus): > 150 µM (not active)
- EC50 (Streptokinase A): 45 µM (active)

Structure (SMILES): CCN(CC)c1ccc(/C=N/n2c(S)nnc2-c2ccccc2Br)cc1
- EC50 [1]: > 120 µM (not active)
- EC50 [2]: > 120 µM (not active)
- EC50 [3]: > 120 µM (not active)

Structure (SMILES): NS(=O)(=O)c1ccc(NN=C2C(=O)NC(=S)NC2=O)cc1
- EC50 (Protein RecA): 15.5 µM (active)
- AC50 [5]: 51.7 µM (active)

Structure (SMILES): CCOc1ccc(S(=O)(=O)N2CCCC(C(=O)NCc3cccnc3)C2)cc1C (configuration not stated)
- EC50 [1]: 65.6 µM (active)
- EC50 [2]: 14.2 µM (active)
- EC50 [3]: 19.3 µM (active)

Structure (SMILES): C=C(C)COc1ccc(-c2n[nH]c(C)c2-c2ccccc2)c(O)c1
- EC50 (Streptokinase A): 7.78 µM (active)

Structure (SMILES): Cc1nn(Cc2ccccc2)c2c1C(c1ccncc1)C(C#N)=C(N)O2 (configuration not stated)
- EC50 (Protein RecA): 3.43 µM (active)
- AC50 [5]: 11.1 µM (active)

Structure (SMILES): CCC(=O)Oc1ccc2c(C)cc(=O)oc2c1C(=O)c1ccccc1
- AC50 (Paired box protein Pax-8): 42.4 µM (active)

Structure (SMILES): CCNc1ccc(C(=O)N/N=C/c2c(C)nn(-c3ccccc3)c2N2CCCC2)cc1[N+](=O)[O-]
- EC50 [1]: 12.7 µM (active)
- EC50 [2]: 18.5 µM (active)
- EC50 [3]: 30.6 µM (active)

Structure (SMILES): Cc1cc(-n2c(SCC(=O)NCc3cccs3)nc3nnc(C)c-3c2N)ccc1Cl
- EC50 [1]: > 120 µM (not active)
- EC50 [2]: 14.4 µM (active)
- EC50 [3]: 15.3 µM (active)

Structure (SMILES): COc1cc(/C=N/NC(=O)CC2(C)OCCCO2)ccc1OCc1ccccc1
- EC50 (Protein RecA): 0.81 µM (active)
- AC50 [5]: 2.64 µM (active)

Structure (SMILES): C[C@H]1CN([C@@H](C)CO)C(=O)Cc2cc(NC(=O)Nc3ccc4c(c3)OCO4)ccc2O[C@@H]1CN(C)Cc1ccc(-c2ccccc2)cc1
- AC50 (Paired box protein Pax-8): 5.45 µM (active)

Structure (SMILES): COC(=O)[C@H]1[C@@H](O)[C@@]2(O)c3c(OC)cc(OC)cc3O[C@@]2(c2ccc(OC)cc2)[C@@H]1c1ccc(F)cc1
- AC50 (Paired box protein Pax-8): 0.465 µM (active)

Structure (SMILES): O=C(Nc1cccc(Cl)c1Cl)c1snnc1-c1ccccc1
- EC50 [6]: > 195 µM (not active)
- AC50 (Cytochrome P450 2C9): 3.16 µM (inconclusive)

Structure (SMILES): CC(=O)Nc1ccc(NC(=O)CSc2ncc(C(=O)Nc3ccccc3)c(=O)n2C)cc1
- EC50 (Protein RecA): 0.043 µM (active)
- AC50 [7]: 5.28 µM (active)
- AC50 [5]: 0.131 µM (active)

Structure (SMILES): COCCCn1c(-c2ccco2)nc2ccccc2c1=O
- EC50 [6]: > 195 µM (not active)

Structure (SMILES): O=C1/C(=C/c2ccc(F)cc2)SC(=S)N1CC(=O)N1CCCCC1c1cccnc1 (configuration not stated)
- EC50 (Protein RecA): 30.3 µM (active)
- AC50 [5]: 13.1 µM (active)

Structure (SMILES): Nn1c(SCc2ccccc2)nnc1-c1ccco1
- EC50 [6]: > 195 µM (not active)

Structure (SMILES): N#CC1=C(N)Oc2[nH]nc(CSc3ccccc3)c2C12C(=O)Nc1ccccc12 (configuration not stated)
- EC50 [6]: > 195 µM (not active)

Structure (SMILES): CC(NC(=O)C12CC3CC(CC(C3)C1)C2)C(=O)N/N=C/C1=C(N2CCOCC2)C(=C\c2ccccc2)/CC1 (configuration not stated)
- EC50 [1]: > 120 µM (not active)
- EC50 [2]: 15.7 µM (active)
- EC50 [3]: 16.4 µM (active)

Structure (SMILES): CC1(C)CC2CC(C)(CN2C(=O)CCCN2C(=O)c3ccccc3C2=O)C1 (configuration not stated)
- EC50 [6]: > 195 µM (not active)

Structure (SMILES): COCc1n[nH]c2c1C(c1ccc(OC)c(OC)c1)C(C#N)=C(N)O2 (configuration not stated)
- EC50 (Protein RecA): 6.25 µM (active)
- AC50 [5]: 9.47 µM (active)

Structure (SMILES): COc1ccc(C(=O)NC2CCCc3c2cnn3-c2ccccc2F)o1 (configuration not stated)
- EC50 [1]: 18.9 µM (active)
- EC50 [2]: 41 µM (active)
- EC50 [3]: 22.2 µM (active)

Structure (SMILES): CC(=O)c1sc(NC(=O)CCS(=O)(=O)c2ccc(Cl)cc2)nc1C
- AC50 (Paired box protein Pax-8): 5.01 µM (active)
